Assay results reported in patent US9775898B2, “Vaccine composition comprising an immunogenic protein and combination adjuvants for use in eliciting antigen-specific T-cell responses” (TheVax Genetics Vaccine Co., Ltd., priority 2015, dated 2017).

How the values were obtained:
[1] = system: E7 antigen specific immune response; test: Immunogenicity analysis of different immunogenic composition (humoral and cell mediated); type: in vivo; settings: mice
[2] = target: CD91 (Homo sapiens, UniProt Q07954); settings: read-out: binding affinity to CD91 (Kd); cited from earlier work
CD91, sequence (Q07954 20-4544, species assumed): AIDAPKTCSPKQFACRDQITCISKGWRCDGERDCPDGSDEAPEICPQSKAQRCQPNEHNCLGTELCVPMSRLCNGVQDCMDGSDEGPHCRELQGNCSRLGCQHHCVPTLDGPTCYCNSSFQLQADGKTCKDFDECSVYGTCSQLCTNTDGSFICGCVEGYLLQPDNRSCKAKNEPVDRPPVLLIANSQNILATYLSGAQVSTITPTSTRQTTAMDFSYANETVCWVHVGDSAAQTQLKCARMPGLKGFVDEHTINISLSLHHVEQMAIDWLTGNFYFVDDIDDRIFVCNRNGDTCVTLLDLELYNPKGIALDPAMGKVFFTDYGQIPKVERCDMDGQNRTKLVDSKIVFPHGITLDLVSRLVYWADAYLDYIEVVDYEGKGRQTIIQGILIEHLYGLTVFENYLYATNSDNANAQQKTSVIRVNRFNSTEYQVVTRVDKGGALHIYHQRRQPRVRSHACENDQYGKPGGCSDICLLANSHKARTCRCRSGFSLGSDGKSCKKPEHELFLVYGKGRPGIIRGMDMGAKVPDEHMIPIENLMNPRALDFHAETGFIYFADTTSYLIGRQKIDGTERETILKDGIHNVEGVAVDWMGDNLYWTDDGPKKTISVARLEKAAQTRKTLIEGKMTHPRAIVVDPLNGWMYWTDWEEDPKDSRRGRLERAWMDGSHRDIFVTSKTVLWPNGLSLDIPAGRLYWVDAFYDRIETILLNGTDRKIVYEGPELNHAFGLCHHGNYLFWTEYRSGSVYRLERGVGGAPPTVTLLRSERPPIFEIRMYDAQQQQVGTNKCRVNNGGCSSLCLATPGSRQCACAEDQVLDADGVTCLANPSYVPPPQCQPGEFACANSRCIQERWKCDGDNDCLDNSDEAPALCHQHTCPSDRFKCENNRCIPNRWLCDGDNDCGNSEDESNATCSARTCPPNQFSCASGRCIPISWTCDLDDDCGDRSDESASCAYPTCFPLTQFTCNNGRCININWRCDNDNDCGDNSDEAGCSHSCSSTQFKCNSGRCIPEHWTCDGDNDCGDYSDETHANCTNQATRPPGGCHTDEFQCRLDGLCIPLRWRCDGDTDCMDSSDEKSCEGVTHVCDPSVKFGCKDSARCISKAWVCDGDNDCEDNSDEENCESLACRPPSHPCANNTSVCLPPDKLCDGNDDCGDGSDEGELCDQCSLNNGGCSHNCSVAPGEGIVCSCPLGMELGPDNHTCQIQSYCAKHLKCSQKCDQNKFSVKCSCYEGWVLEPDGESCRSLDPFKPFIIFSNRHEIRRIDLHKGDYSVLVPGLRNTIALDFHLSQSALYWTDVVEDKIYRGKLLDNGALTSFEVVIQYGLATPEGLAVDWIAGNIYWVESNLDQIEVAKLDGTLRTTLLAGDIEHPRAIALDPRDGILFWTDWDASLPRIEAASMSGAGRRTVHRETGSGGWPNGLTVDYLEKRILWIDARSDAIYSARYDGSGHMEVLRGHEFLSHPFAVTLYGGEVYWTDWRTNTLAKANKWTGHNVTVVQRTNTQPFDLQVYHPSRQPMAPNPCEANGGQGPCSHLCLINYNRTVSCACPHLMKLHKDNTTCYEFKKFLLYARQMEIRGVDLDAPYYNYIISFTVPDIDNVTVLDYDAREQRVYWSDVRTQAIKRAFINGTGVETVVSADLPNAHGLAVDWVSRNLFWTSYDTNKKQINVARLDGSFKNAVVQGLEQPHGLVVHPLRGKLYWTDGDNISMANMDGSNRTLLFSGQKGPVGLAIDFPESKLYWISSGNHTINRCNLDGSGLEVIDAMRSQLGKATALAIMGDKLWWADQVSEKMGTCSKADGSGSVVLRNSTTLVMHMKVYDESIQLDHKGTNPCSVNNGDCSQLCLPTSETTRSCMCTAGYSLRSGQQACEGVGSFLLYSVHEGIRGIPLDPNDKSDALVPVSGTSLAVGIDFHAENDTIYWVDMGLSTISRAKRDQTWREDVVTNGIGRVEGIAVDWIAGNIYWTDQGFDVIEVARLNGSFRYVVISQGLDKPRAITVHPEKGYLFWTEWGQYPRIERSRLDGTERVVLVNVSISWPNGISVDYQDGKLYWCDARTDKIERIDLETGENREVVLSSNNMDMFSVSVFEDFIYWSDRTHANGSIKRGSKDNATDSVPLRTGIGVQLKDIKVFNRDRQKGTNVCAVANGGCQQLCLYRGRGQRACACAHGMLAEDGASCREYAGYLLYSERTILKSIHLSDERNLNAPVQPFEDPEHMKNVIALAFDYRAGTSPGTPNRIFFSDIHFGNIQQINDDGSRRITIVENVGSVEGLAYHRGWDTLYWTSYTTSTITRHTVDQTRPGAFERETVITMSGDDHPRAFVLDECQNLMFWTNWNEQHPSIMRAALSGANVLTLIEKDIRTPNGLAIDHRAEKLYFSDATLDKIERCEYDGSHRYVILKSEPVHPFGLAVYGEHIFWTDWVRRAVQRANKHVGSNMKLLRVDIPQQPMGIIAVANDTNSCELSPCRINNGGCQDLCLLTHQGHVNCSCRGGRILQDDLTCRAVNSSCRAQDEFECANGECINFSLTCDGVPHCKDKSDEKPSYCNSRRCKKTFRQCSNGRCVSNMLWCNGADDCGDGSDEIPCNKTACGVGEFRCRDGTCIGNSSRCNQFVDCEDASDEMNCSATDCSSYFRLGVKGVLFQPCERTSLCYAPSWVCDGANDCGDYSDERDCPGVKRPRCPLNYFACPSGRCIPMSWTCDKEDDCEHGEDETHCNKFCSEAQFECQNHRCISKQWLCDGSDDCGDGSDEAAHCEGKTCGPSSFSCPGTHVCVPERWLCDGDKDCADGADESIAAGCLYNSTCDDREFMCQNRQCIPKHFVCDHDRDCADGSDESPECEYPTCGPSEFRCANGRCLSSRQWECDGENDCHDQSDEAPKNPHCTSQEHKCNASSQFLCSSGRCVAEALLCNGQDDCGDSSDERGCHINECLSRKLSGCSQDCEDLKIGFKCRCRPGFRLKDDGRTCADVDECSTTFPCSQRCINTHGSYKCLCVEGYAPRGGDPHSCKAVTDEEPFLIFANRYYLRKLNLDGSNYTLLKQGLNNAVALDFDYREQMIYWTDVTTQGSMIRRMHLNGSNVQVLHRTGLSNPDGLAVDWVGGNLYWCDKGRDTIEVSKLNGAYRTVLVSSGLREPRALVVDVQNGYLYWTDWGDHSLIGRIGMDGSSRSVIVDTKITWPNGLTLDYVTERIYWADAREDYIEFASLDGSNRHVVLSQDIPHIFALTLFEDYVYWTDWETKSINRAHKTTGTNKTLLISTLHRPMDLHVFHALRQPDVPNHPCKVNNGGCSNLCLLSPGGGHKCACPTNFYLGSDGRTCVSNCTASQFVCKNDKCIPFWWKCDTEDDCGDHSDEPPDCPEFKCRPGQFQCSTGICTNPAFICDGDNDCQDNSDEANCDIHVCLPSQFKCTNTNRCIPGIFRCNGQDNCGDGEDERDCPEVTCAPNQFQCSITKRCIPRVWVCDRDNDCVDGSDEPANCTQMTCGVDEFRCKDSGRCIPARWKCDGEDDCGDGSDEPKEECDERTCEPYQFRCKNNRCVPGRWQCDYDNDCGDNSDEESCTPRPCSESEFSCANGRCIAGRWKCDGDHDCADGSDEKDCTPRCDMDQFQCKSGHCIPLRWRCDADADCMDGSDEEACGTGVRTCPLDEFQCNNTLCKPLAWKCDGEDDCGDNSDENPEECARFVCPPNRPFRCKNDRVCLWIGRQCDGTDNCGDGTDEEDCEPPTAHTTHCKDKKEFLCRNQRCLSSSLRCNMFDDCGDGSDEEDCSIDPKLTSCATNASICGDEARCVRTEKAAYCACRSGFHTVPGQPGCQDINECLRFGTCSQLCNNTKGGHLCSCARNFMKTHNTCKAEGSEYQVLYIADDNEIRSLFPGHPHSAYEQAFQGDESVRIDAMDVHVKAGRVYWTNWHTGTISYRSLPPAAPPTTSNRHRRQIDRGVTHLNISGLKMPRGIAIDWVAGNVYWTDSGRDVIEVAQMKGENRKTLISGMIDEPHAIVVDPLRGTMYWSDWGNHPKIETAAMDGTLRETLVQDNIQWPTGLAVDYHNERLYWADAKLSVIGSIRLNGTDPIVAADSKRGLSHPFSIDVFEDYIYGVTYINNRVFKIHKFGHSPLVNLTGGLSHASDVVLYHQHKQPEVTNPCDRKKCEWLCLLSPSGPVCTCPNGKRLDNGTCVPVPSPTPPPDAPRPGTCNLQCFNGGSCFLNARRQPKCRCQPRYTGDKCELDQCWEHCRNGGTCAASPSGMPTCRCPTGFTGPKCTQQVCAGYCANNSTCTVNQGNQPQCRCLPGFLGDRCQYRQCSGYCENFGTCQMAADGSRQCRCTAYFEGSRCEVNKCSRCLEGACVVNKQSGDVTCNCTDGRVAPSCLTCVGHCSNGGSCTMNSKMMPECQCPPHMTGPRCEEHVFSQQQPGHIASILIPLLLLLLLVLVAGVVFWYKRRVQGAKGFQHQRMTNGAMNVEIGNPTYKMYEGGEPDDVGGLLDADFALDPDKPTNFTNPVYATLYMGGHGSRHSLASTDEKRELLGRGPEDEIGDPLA

E7 antigen: HPV16 E7 protein (full length), SEQ ID NO: 21, antigen itself only
E7 antigen specific cell mediated immune response ([1]; combined with GPI-0100 or QS-21): weak to strong

RAP1: 39 kDa ER resident protein and molecular chaperone for LDL receptor-related protein
Kd [2]: ~3 nM

QS-21 [reference compound]
adjuvant comparison for stimulating both humoral and cell mediated immune responses ([1]; with E7 immunogenic proteins, compared with alum): better adjuvants
